The structures appear in SMILES notation. Converted amounts (≈) assume the structure as drawn.

What is called EC50 is the concentration that produces a half-maximal response. Usually IC50 stands for the concentration at which inhibition is half-maximal. A higher IC50 goes with weaker potency. The term AC50 denotes the midpoint of the concentration-response curve, whichever way the signal moves. What is called IC90 is the concentration needed for an effect of 90%. A word on the inhibition: it is the share of the control response that was lost under treatment. Lower therefore signals a weak effect.

Series [1] has as its system Human immunodeficiency virus. Nature of the series: Antiviral activity against HIV infected in human MT4 cells assessed as reduction in virus-induced cytopathogenicity. Type of series: functional, organism-based. The note with it: Human immunodeficiency virus 1, MT4. In general terms: Cytopathic effects are the visible damage that an infection or toxin causes in cultured cells.

Series [2] in a line: Cytotoxicity against human C8166 cells. Format: cell-based. The note with it: human, C8166 cells.
The subject of series [3] is Human immunodeficiency virus 1. Nature of the series: Antiviral activity against HIV1 infected in human C8166 cells assessed as inhibition of virus replication. Type of series: functional, organism-based. The note with it: Human immunodeficiency virus 1, C8166.
Series [4] in a line: Toxicity against human U373-MAGI-CXCR4-CEM cells. Type of series: cell-based.
A short description of series [5]: Toxicity against human MT2 cells. Format: cell-based.
In series [6] the test system is Human immunodeficiency virus 1. Nature of the series: Antiviral activity against HIV1 3B. Format: functional, organism-based. The conditions noted are these: Human immunodeficiency virus 1, 3B.
Series [7] in a line: Toxicity against human CEMx174 5.25M7 cells. Format: cell-based.
Series [8] relates to Human immunodeficiency virus 1. Nature of the series: Antiviral activity against HIV1 93BR020 assessed as inhibition of virus mediated cell fusion between CEMx174 5.25M7 cells and PBMC/HIV1 93BR020 cells. Format: functional, organism-based. The note with it: Human immunodeficiency virus 1, 93BR020, CEMx174 5.25M7.
Series [9] in a line: Toxicity against human U87-T4-CXCR4 cells. Format: cell-based, U-87MG ATCC.
Series [10] has as its system Human immunodeficiency virus 1. Nature of the series: Antiviral activity against HIV1 BCF02 assessed as inhibition of virus mediated cell fusion between CEMx174 5.25M7 cells and […] cells. Type of series: functional, organism-based. The note with it: Human immunodeficiency virus 1, BCF02, CEMx174 5.25M7.
Series [11] deals with Human immunodeficiency virus 1. Nature of the series: Antiviral activity against HIV1 92UG029 assessed as inhibition of virus mediated cell fusion between CEMx174 5.25M7 cells and […] cells. Format: functional, organism-based. The conditions noted are these: Human immunodeficiency virus 1, 92UG029, CEMx174 5.25M7.
The test system of series [12] is Human immunodeficiency virus 1. Nature of the series: Antiviral activity against HIV1 3B assessed as inhibition of virus mediated cell fusion between MT2 cells and H9/HIV1 3B cells. Type of series: functional, organism-based. The note with it: Human immunodeficiency virus 1, 3B.
The subject of series [13] is Human immunodeficiency virus 1. Nature of the series: Antiviral activity against HIV1 SF162 assessed as inhibition of virus mediated cell fusion between CEMx174 5.25M7 cells and PBMC/HIV1 SF162 cells. Format: functional, organism-based. The note with it: Human immunodeficiency virus 1, SF162, CEMx174 5.25M7.
The test system of series [14] is Human immunodeficiency virus 1. Nature of the series: Antiviral activity against HIV1 93TH051 assessed as inhibition of virus mediated cell fusion between CEMx174 5.25M7 cells and PBMC/HIV1 93TH051 cells. Format: functional, organism-based. The note with it: Human immunodeficiency virus 1, 93TH051, CEMx174 5.25M7.
The subject of series [15] is Human immunodeficiency virus 1. Nature of the series: Antiviral activity against HIV1 SF2. The note with it: Human immunodeficiency virus 1, SF2. Format: functional, organism-based.
The subject of series [16] is Human immunodeficiency virus 1. Nature of the series: Antiviral activity against HIV1 RF. Type of series: functional, organism-based. The conditions noted are these: Human immunodeficiency virus 1, RF.
Series [17] concerns Human immunodeficiency virus 1. Nature of the series: Antiviral activity against HIV1 infected in human MT4 cells. Type of series: functional, organism-based. The note with it: Human immunodeficiency virus 1, MT4.
Series [18] has as its system Human immunodeficiency virus 1. Nature of the series: Antiviral activity against HIV1 JRFL. The note with it: Human immunodeficiency virus 1, JRFL. Type of series: functional, organism-based.
Series [19] relates to Human immunodeficiency virus 1. Nature of the series: Antiviral activity against HIV1 NL4-3. Format: functional, organism-based. The conditions noted are these: Human immunodeficiency virus 1, NL4-3.
The test system of series [20] is Human immunodeficiency virus 1. Nature of the series: Antiviral activity against HIV1 TLAV. The conditions noted are these: Human immunodeficiency virus 1, TLAV. Type of series: functional, organism-based.
For series [21], the system named is Human immunodeficiency virus 2. Nature of the series: Antiviral activity against HIV2 LAI. Type of series: functional, organism-based. The note with it: Human immunodeficiency virus 2, LAI.
Series [22] concerns Human immunodeficiency virus 1. Nature of the series: Antiviral activity against HIV1 SF162. Format: functional, organism-based. The note with it: Human immunodeficiency virus 1, SF162.
The subject of series [23] is Human immunodeficiency virus 1. Nature of the series: Antiviral activity against HIV1 BAL. Type of series: functional, organism-based. The conditions noted are these: Human immunodeficiency virus 1, BAL.
In series [24] the test system is Human immunodeficiency virus. Nature of the series: Antiviral activity against HIV expressing raltegravir-resistant integrase mutants. Format: functional, organism-based. The note with it: Human immunodeficiency virus 1.
The test system of series [25] is Human immunodeficiency virus 1. Nature of the series: Antiviral activity against HIV1 by multi-cycle antiviral assay. Format: functional, organism-based.
Series [26] relates to Human immunodeficiency virus 1. Nature of the series: Antiviral activity against HIV1 by single-cycle antiviral assay. Format: functional, organism-based.
Series [27] can be described thus: Inhibition of HIV1 LTR-mediated transcription assessed as drug level causing 50% inhibition of protein/RNA complex formation incubated for 15 mins. Set-up: species or system Human immunodeficiency virus.
The test system of series [28] is Human immunodeficiency virus 1. Nature of the series: Antiviral activity against HIV1. Type of series: functional, organism-based.
Series [29] has as its system Human immunodeficiency virus 1. Nature of the series: Antiviral activity against HIV1 3B infected in human MT2 cells assessed as reduction in virus-induced cell death. Format: functional. The conditions noted are these: Human immunodeficiency virus 1, 3B.
Series [30] is described as follows: Cytotoxicity against human MT2 cells. Format: cell-based. The note with it: read-out: TC50 (the source's name).
For series [31], the target named is Human immunodeficiency virus type 1 reverse transcriptase (Human immunodeficiency virus 1) (UniProt Q72547). Nature of the series: Inhibition of HIV1 reverse transcriptase at 330 uM.
Series [32] deals with Human immunodeficiency virus. Nature of the series: Antiviral activity against HIV. Format: functional, organism-based. The note with it: Human immunodeficiency virus 1.
Series [33] concerns Human immunodeficiency virus 2. Nature of the series: Antiviral activity against HIV2 ROD. Type of series: functional, organism-based. The conditions noted are these: Human immunodeficiency virus 2, ISOLATE ROD.

Consider `COc1ccc(OCc2nc3ccccc3n3cccc23)cc1`, for which, in [1], the EC50 is above 16 mg/L.
For `CCOC(=O)CCC(NC(=O)c1ccc(Nc2nc3cc(C(F)(F)F)ccc3n3cccc23)cc1)C(=O)OCC` (stereo not drawn), in series [1], the EC50 is above 39 mg/L.
Compound `O=C(NCc1ccc(F)cc1)c1ncc(O)c2c1C(=O)N(CCc1ccc(F)cc1)C2=O` had a CC50 in series [2] of 30.8 µM. Besides, the EC50 in series [3] was 5.7 µM.
`CCOC(=O)c1ncc(O)c2c1C(=O)N(CCc1ccc(F)cc1)C2=O` had a CC50 in [2] of 13.2 µM. Further, in [3], the EC50 stood at 1.65 µM.
For the compound `Cc1ccc(C)n1-c1ccc(C(=O)O)c(O)c1`, the CC50 is 1860 µM in [4], 2760 µM in [5], 2490 µM in [7] and above 4000 µM in series [9]. The EC50 in [6] is 1.04 µM; in series [8], 7.04 µM; in [10] it was 3.94 µM; in [11] it was 10.6 µM; in series [12], 6.74 µM; in series [13] it was 20.6 µM. Moreover, the EC50 worked out at 7.46 µM in series [14], 1.86 µM in series [15] and 1.69 µM in series [16].
`CCOC(=O)c1ncc(O)c2c1C(=O)N(CCc1ccc(C)cc1)C2=O` came in with a CC50 in [2] of 15.5 µM. Moreover, the EC50 in series [3] worked out at 2.34 µM.
`O=C(O)c1ccc(Nc2nc3cc(C(F)(F)F)ccc3n3cccc23)cc1`: the EC50 in series [1] was above 15 mg/L.
With `CCOC(=O)c1cc2c3cc(OC)ccc3c3ccc(N)cc3n2c1C`, in [17], the EC50 turned out to be 120 µM.
`O=C(C(=O)N1CCN(C(=O)c2ccccc2)CC1)c1c[nH]c2cccc(F)c12`: the EC50 in [18], in [19], in series [20], in series [21], in series [22] and in series [23] was 0.85 µM each time. The concentration for a half-maximal effect (EC50) in series [15] came to 0.85 µM.
On to `CC1=C2C(=O)N(Cc3ccc(F)c(Cl)c3)C(=O)C2=C(O)C(=O)C1c1ccccc1` (stereo not drawn), for which the IC50 in series [24] amounted to 6.4 µM.
Regarding `COc1ccc(Nc2nc3ccccc3n3cccc23)cc1OC`, the 50% effective concentration (EC50) in series [1] was above 31 mg/L.
With `O=C1NC(c2ccc(O)cc2)c2c(-c3ccccc3)n[nH]c21` (stereo not drawn), the figures for the EC50 in [25] and in [26] were 1.4 µM and 1.8 µM, respectively.
In turn, `CCOC(=O)c1cc2c3ccccc3c3ccccc3n2c1C` showed an EC50 in [17] of 100 µM.
In series [24], `CC(=O)OCC1=C2C(=O)N(Cc3ccc(F)c(Cl)c3)C(=O)C2=C(O)C(=O)C1C(C)C` (stereo not drawn) gave an IC50 of 15.6 µM.
Regarding `O=C(O)c1cc(-n2cccc2)ccc1Cl`, the CC50 in series [4], in series [5], in series [7] and in [9] was above 4000 µM in each case. The EC50 in series [6] was 2.21 µM; in series [8], 10.1 µM; in series [10] it was 46.4 µM; in series [11] it was 29 µM; in series [12] it was 29.9 µM; in series [13] it was 93.1 µM. Moreover, the concentration for a half-maximal effect (EC50) in series [14] came out at 57.3 µM; in [15] it was 4.75 µM; in [16], 3.58 µM.
`COc1cc2c(cc1OCCC(=O)Nc1cc(C(=O)Nc3cc(C(=O)Nc4cc(C(=O)Nc5cc(C(=O)NCCC(=N)N)n(C)c5)n(C)c4)n(C)c3)n(C)c1)N=C[C@@H]1CCCN1C2=O`: in series [27], the AC50 turned out to be 10 µM.
The compound `CN1N=C(N)c2cn([C@H]3CC[C@@H](CO)O3)c3ncnc1c23` showed an EC50 in series [28] of 21 µM.
`O=C(O)c1ccc(OCc2nc3ccccc3n3cccc23)cc1`: the EC50 in series [1] is above 8 mg/L.
Regarding `O=C(C[C@H]1C(=O)Nc2ccccc2-c2cccn21)OCc1ccccc1`, in series [29], the 90% effect concentration (IC90) amounted to 0.29 mg/L (≈ 0.837 µM). In addition, in [30], the CC50 was 10 mg/L (≈ 28.9 µM).
Turning to `O=C1c2cnncc2C2(c3ccccc3)NCCN12` (stereo not drawn), the inhibition in series [31] was determined as 36%.
`CSc1c(C#N)c2c(N)ncnc2n1COC(CO)CO`: half-maximal inhibition in [32] (IC50) required 20 µM.
`COc1cc2c(cc1OCCC(=O)Nc1cc(C(=O)Nc3cc(C(=O)Nc4cc(C(=O)NCCC(=N)N)n(C)c4)n(C)c3)n(C)c1)N=C[C@@H]1CCCN1C2=O`: the AC50 in series [27] came to 15 µM.
On to `O=C1N(Cc2cccc(Cl)c2)c2cccn2S(=O)(=O)N1Cc1cccc(F)c1`, for which the EC50 was 11 µM in series [6] and above 150 µM in series [33].
In the case of `O=C1c2ccccc2C(=O)N1CCCCCN1C(=O)[C@H](Cc2ccc(O)cc2)n2cccc2-c2ccccc21`, the IC90 in [29] came out at 2.6 mg/L (≈ 5 µM). Also, the CC50 in [30] is above 50 mg/L.
`N#Cc1cn(COCCO)c2ncnc(N)c12`: in [32], it took 46 µM to reach half-maximal inhibition (IC50).
As to `CC(=O)OCC1=C2C(=O)N(Cc3ccc(F)c(Cl)c3)C(=O)C2=C(O)C(=O)C1`, the 50% inhibitory concentration (IC50) in [24] worked out at 12.3 µM.

The values above are taken from ChEMBL document CHEMBL3608235, “Pyrroloaryls and pyrroloheteroaryls: Inhibitors of the HIV fusion/attachment, reverse transcriptase and integrase” (Bioorg Med Chem, 2015).
